Measurements: US8389523B2, “Substituted quinoxaline and an agrochemical composition thereof” (Kumiai Chemical Industry Co., Ltd., priority 2007, dated 2013)

Key:
Type in all cases: in vivo
Set-up in all cases: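 grade 0 to 5 of growth suppression where 5 is 90% or more and 0 below 10%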
[1] = system: Abutilon theophrasti medicus; assay: Herbicidal effects in upland field foliar treatment (Test Example 3); conditions: 1000 g active ingredient per hectare, 14th day after treatment, criteria of Table 138
Procedure: (§1) Test Example 3 Test on Herbicidal Effects in Upland Field Foliar Treatment A 80-cm^2 plastic pot was filled with upland field soil. Seeds of Echinochloa crus-galli (L.) P. Beauv. var. crus-galli, Abutilon theophrasti medicus and Amaranthus viridis L. were sowed, and the plants were grown for two weeks in a greenhouse. A wettable powder formulation prepared according to Preparation Example 1 was diluted with water, and was sprayed with a small sprayer to perform foliar application over the entirety of plants from the upper side, in an amount equivalent to 1000 liters per hectare, such that 1000 g of the active ingredient per hectare was applied. Thereafter, the plants were grown in a greenhouse, and on the 14th day after the treatment, the herbicidal effects were investigated according to the criteria described in the Table 138 shown above.

Amaranthus viridis L. [2] = assay: as above; conditions: 1000 g active ingredient per hectare, 14th day after treatment, criteria of Table 138
Procedure: as §1

[3] = system: Echinochloa crus-galli (L.) P. Beauv. var. crus-galli; assay: as above; conditions: 1000 g active ingredient per hectare, 14th day after treatment, criteria of Table 138
Procedure: as §1

[4] = system: Echinochloa oryzicola Vasing; assay: Herbicidal effects in paddy field soil treatment (Test Example 1); conditions: paddy field soil treatment; 1000 g of the active ingredient per hectare; wettable powder added dropwise on water surface; 21st day after treatment
Procedure: (§2) Test for Herbicidal Effects in Paddy Field Soil Treatment
(§3) A 100-cm^2 plastic pot was filled with paddy field soil. After puddling and leveling, seeds of Echinochloa oryzicola Vasing, Monochoria vaginalis (Burm. f.) Presl var. plantaginea (Roxb.) Solms-Laub., and Scirpus juncoides Roxb. var. ohwianus. T. Koyama were sowed, and the soil was waterlogged to a water depth of 3 cm. On the next day, a wettable powder formulation prepared according to Preparation Example 1 was diluted with water, and was added dropwise on the water surface. The amount of application was an amount equivalent to 1000 g of the active ingredient per hectare. Thereafter, the plants were grown in a greenhouse, and on the 21st day after the treatment, the herbicidal effects were investigated according to the criteria described in Table 138.

[5] = system: Monochoria vaginalis (Burm. f.) Presl var. plantaginea (Roxb.) Solms-Laub.; assay: as above; conditions: paddy field soil treatment; 1000 g of the active ingredient per hectare; wettable powder added dropwise on water surface; 21st day after treatment
Procedure: as §2, §3

[6] = system: Scirpus juncoides Roxb. var. ohwianus. T. Koyama; assay: as above; conditions: paddy field soil treatment; 1000 g of the active ingredient per hectare; wettable powder added dropwise on water surface; 21st day after treatment
Procedure: as §2, §3

[7] = system: Abutilon theophrasti medicus; assay: Herbicidal effects in upland field soil treatment (Test Example 2); conditions: 1000 g active ingredient per hectare, 21st day after treatment, criteria of Table 138
Procedure: (§4) Test Example 2 Test on Herbicidal Effects in Upland Field Soil Treatment A 80-cm^2 plastic pot was filled with upland field soil. Seeds of Abutilon theophrasti medicus and Amaranthus viridis L. were sowed, and soil was covered. A wettable powder formulation prepared according to Preparation Example 1 was diluted with water, and was uniformly sprayed on the soil surface with a small sprayer, in an amount equivalent to 1000 liters per hectare, such that 1000 g of the active ingredient per hectare was applied. Thereafter, the plants were grown in a greenhouse, and on the 21st day after the treatment, the herbicidal effects were investigated according to the criteria described in the Table 138 shown above.

Amaranthus viridis L. [8] = assay: as above; conditions: 1000 g active ingredient per hectare, 21st day after treatment, criteria of Table 138
Procedure: as §4

Structure (SMILES) | herbicidal effect (index) on Abutilon theophrasti medicus [1] | herbicidal effect (index) on Amaranthus viridis L. (Amaranthus viridis L. [2]) | herbicidal effect (index) on Echinochloa crus-galli (L.) P. Beauv. var. crus-galli [3] | Herbicidal effects index, Echinochloa oryzicola Vasing [4] | Herbicidal effects index, Monochoria vaginalis (Burm. f.) Presl var. plantaginea (Roxb.) Solms-Laub. [5] | Herbicidal effects index, Scirpus juncoides Roxb. var. ohwianus. T. Koyama [6] | herbicidal effect (index) on Abutilon theophrasti medicus [7] | herbicidal effect (index) on Amaranthus viridis L. (Amaranthus viridis L. [8])
CSc1ccc2nc(C(=O)C3=C(O)CCCC3=O)c(=O)n(C)c2c1 [I-243] | 5 | 5 | 5 | – | – | – | – | –
CN(C)C(=O)Cn1c(=O)c(C(=O)C2=C(O)CCCC2=O)nc2ccccc21 [Compound I-100] | 4 | 5 | 5 | – | – | – | – | –
O=C1CCCC(O)=C1C(=O)c1nc2ccccc2n(-c2ccc3c(c2)OCCCO3)c1=O [II-232] | – | – | – | 4 | 5 | 5 | 4 | 5
COc1ccc(-n2c(=O)c(C(=O)C3=C(O)CCCC3=O)nc3ccc(C)cc32)cc1 [II-247] | – | – | – | 4 | 5 | 5 | 5 | 5
CC1CC(C)(C)C(O)=C(C(=O)c2nc3ccccc3n(-c3ccc4c(c3)OCCO4)c2=O)C1=O (centres unmarked) [II-230] | – | – | – | 4 | 5 | 5 | 4 | 5
Cn1c(=O)c(C(=O)C2=C(O)CCCC2=O)nc2ccc(S(C)(=O)=O)cc21 [I-247] | 5 | 5 | 4 | – | – | – | – | –
O=C1CCCC(O)=C1C(=O)c1nc2ccccc2n(C2CCSC2)c1=O (centres unmarked) [I-136] | 5 | 5 | 4 | – | – | – | – | –
O=C1CCCC(O)=C1C(=O)c1nc2ccccc2n(-c2ccc(Cl)nn2)c1=O [I-273] | – | – | – | 5 | 5 | 5 | 5 | 5
CC(C)c1cccc(-n2c(=O)c(C(=O)C3=C(O)CCCC3=O)nc3ccccc32)c1 [II-29] | – | – | – | 5 | 5 | 5 | 4 | 5
CCn1c(=O)c(C(=O)C2=C(O)CCCC2=O)nc2c(Cl)cccc21 [I-363] | – | – | – | 5 | 5 | 5 | 5 | 5
CN(C(=O)OC(C)(C)C)n1c(=O)c(C(=O)C2=C(O)CCCC2=O)nc2ccccc21 [I-278] | – | – | – | 4 | 5 | 5 | 5 | 5
O=C1CCCC(O)=C1C(=O)c1nc2cc(F)ccc2n(-c2ccc3c(c2)OCCO3)c1=O [II-240] | – | – | – | 4 | 5 | 5 | 5 | 5
Cc1ccc(-n2c(=O)c(C(=O)C3=C(O)CCCC3=O)nc3ccccc32)cc1Cl [II-216] | – | – | – | 5 | 5 | 5 | 4 | 5
COc1ccc(-n2c(=O)c(C(=O)C3=C(O)CCCC3=O)nc3c(C)cccc32)cc1 [II-245] | – | – | – | 5 | 5 | 5 | 5 | 5
COc1ccc(-n2c(=O)c(C(=O)C3=C(O)CCCC3=O)nc3c(Cl)cccc32)cn1 [I-379] | – | – | – | 5 | 5 | 5 | 5 | 5
COc1ccc(-n2c(=O)c(C(=O)C3=C(O)CCCC3=O)nc3ccccc32)cc1C [II-180] | – | – | – | 5 | 5 | 5 | 4 | 5
COc1c(F)cc(-n2c(=O)c(C(=O)C3=C(O)CCCC3=O)nc3c(F)cccc32)cc1F [II-235] | – | – | – | 4 | 5 | 5 | 4 | 5
O=C1CCCC(O)=C1C(=O)c1nc2cccc(Cl)c2n(-c2ccccc2)c1=O [II-193] | – | – | – | 5 | 5 | 5 | 5 | 5
COc1ccc(-n2c(=O)c(C(=O)C3=C(O)CCCC3=O)nc3c(Cl)cccc32)cc1F [II-301] | – | – | – | 5 | 5 | 5 | 5 | 5
CSCn1c(=O)c(C(=O)C2=C(O)CCCC2=O)nc2cccnc21 [III-70] | – | – | – | 4 | 5 | 5 | 5 | 5
